Results: ChEMBL document CHEMBL5715952 (Oncotarget, 2015)

Experiments:
[1] = Inhibition of CSF1R/FLT3 in human RPMI-8226 cells assessed as reduction of cell growth incubated for 72 hrs by CellTiter 96 aqueous one solution cell proliferation assay; type: cell-based; settings: RPMI-8226, 72 h
[2] = Inhibition of CSF1R/FLT3 in bortezomib Resistant human RPMI-8226 cells assessed as reduction of cell growth incubated for 72 hrs by CellTiter 96 aqueous one solution cell proliferation assay; type: cell-based; settings: Bortezomib-resistant RPMI-8226, 72 h
[3] = Inhibition of CSF1R/FLT3 in Melphalan Resistant human RPMI-8226 cells assessed as reduction of cell growth incubated for 72 hrs by CellTiter 96 aqueous one solution cell proliferation assay; type: cell-based; settings: Melphalan-resistant RPMI-8226 cell
[4] = Inhibition of CSF1R/FLT3 in human ANBL-6 cells assessed as reduction of cell growth incubated for 72 hrs by CellTiter 96 aqueous one solution cell proliferation assay; type: cell-based; settings: ANBL-6, 72 h
[5] = Inhibition of CSF1R/FLT3 in human bortezomib-resistant ANBL6 cells assessed as reduction of cell growth incubated for 72 hrs by CellTiter 96 aqueous one solution cell proliferation assay; type: cell-based
[6] = Inhibition of CSF1R/FLT3 in human U-266 cells assessed as reduction of cell growth incubated for 72 hrs by CellTiter 96 aqueous one solution cell proliferation assay; type: cell-based; settings: U-266, 72 h
[7] = Ratio of IC50 for inhibition of CSF1R/FLT3 in human RPMI-8226 cells assessed as reduction of cell viability to IC50 for inhibition of CSF1R/FLT3 in human melphalan-resistant RPMI-8226 cells assessed as reduction of cell viability; settings: time 72 hrs; condition multiple myeloma
[8] = Ratio of IC50 for inhibition of CSF1R/FLT3 in human RPMI-8226 cells assessed as reduction of cell viability to IC50 for inhibition of CSF1R/FLT3 in human RPMI-8226/BR resistant cells assessed as reduction of cell viability; settings: condition multiple myeloma
[9] = Ratio of IC50 for inhibition of CSF1R/FLT3 in human ANBL6 cells assessed as reduction of cell viability to IC50 for inhibition of CSF1R/FLT3 in human ANBL6/BR resistant cells assessed as reduction of cell viability; settings: condition multiple myeloma
[10] = Ratio of IC50 for inhibition of hedgehog in human RPMI-8226 cells assessed as reduction of cell viability to IC50 for inhibition of hedgehog in human melphalan-resistant RPMI-8226 cells assessed as reduction of cell viability; settings: time 72 hrs; condition multiple myeloma
[11] = Ratio of IC50 for inhibition of hedgehog in human RPMI-8226 cells assessed as reduction of cell viability to IC50 for inhibition of hedgehog in human RPMI-8226/BR resistant cells assessed as reduction of cell viability; settings: condition multiple myeloma
[12] = Ratio of IC50 for inhibition of hedgehog in human ANBL6 cells assessed as reduction of cell viability to IC50 for inhibition of hedgehog in human ANBL6/BR resistant cells assessed as reduction of cell viability; settings: condition multiple myeloma
cells [13] = settings: Homo sapiens, RPMI-8226, 72 h
cells [14] = settings: Homo sapiens, Bortezomib-resistant RPMI-8226, 72 h
cells [15] = settings: Homo sapiens, Melphalan-resistant RPMI-8226 cell, 72 h
cells [16] = settings: Homo sapiens, ANBL-6, 72 h
cells [17] = settings: Homo sapiens, Bortezomib-resistant ANBL6 cell, 72 h
cells [18] = settings: Homo sapiens, U-266, 72 h

SMILES	IC50 [1] [µM]	IC50 [2] [µM]	IC50 [3] [µM]	IC50 [4] [µM]	IC50 [5] [µM]	IC50 [6] [µM]	Ratio IC50 [7]	Ratio IC50 [8]	Ratio IC50 [9]	Ratio IC50 [10]	Ratio IC50 [11]	Ratio IC50 [12]	IC50 (cells [13]) [µM]	IC50 (cells [14]) [µM]	IC50 (cells [15]) [µM]	IC50 (cells [16]) [µM]	IC50 (cells [17]) [µM]	IC50 (cells [18]) [µM]
CN(C)CC(=O)N1CCC(c2ccc(NC(=O)c3nc(C#N)c[nH]3)c(C3=CCCCC3)c2)CC1	10	10	10	10	10	10	1	1	1									
CS(=O)(=O)c1ccc(C(=O)Nc2ccc(Cl)c(-c3ccccn3)c2)c(Cl)c1 [VISMODEGIB]										1	1	1	10	10	10	10	10	10
